Experimental data taken from patent US4010261A, “Method to prevent reproduction with [Des-Gly]^10 -GN-RH nonadeptide amide analogs in position” (Abbott Laboratories, priority 1974, dated 1977).

Tests used:
pregnant rats = assay: Implantation in pregnant rats with various compounds under Compound N (Examples 7-10); type: in vivo, rat
Description: a) number of animals with implants/number of animals treated
b) mean implantation sites (based on those with implantation sites)
c) viable fetuses/total number of fetuses (successful pregnancy)
In this experiment, the activity of various compounds encompassed under Compound N are desmonstrated. Groups of 8 - 10 pregnant rats were injected subcutaneously b.i.d. with 0.5 ml. of the medium shown in Example 1 containing the compound and dose identified below. The results are expressed as explained in Example 2.

[1] = tested on: rats treated with Compound N; assay: Exogenous estradiol given to Compound N-treated pregnant rats; type: in vivo, rat; conditions: estradiol 0.1 μg. s.c. in sesame oil on days 4 and 5 of gestation, rats treated with Compound N days 2-6
Description: More specifically, if estradiol is subcutaneously given to rats treated with Compound N (days 2 - 6 of gestation) on days 4 and 5 of gestation at a dose of as little as 0.1 μg. each (dissolved in sesame oil), implantation already takes place in 3 of 8 animals, producing 100% viable embryos.

CCNC(=O)[C@@H]1CCCN1C(=O)[C@H](CCCNC(=N)N)NC(=O)[C@H](CC(C)C)NC(=O)[C@@H](C)NC(=O)[C@H](Cc1ccc(O)cc1)NC(=O)[C@H](CO)NC(=O)[C@H](Cc1c[nH]c2ccccc12)NC(=O)[C@H](Cc1c[nH]cn1)NC(=O)[C@@H]1CCC(=O)N1 [Example 8, L-pGlu-L-His-L-Trp-L-Ser-L-Tyr-X-L-Leu-L-Arg-L-Pro-NH-R]
a: number of animals with implants/number of animals treated (pregnant rats; Dose 10 μg. s.c. b.i.d.): 0/10 | b: mean implantation sites (based on those with implantation sites) (pregnant rats; Dose 10 μg. s.c. b.i.d.): 0 | c: viable fetuses/total number of fetuses (successful pregnancy) (pregnant rats; Dose 10 μg. s.c. b.i.d.): 0%

CNC(=O)[C@@H]1CCCN1C(=O)[C@H](CCCNC(=N)N)NC(=O)[C@H](CC(C)C)NC(=O)[C@@H](CC(C)C)NC(=O)[C@H](Cc1ccc(O)cc1)NC(=O)[C@H](CO)NC(=O)[C@H](Cc1c[nH]c2ccccc12)NC(=O)[C@H](Cc1c[nH]cn1)NC(=O)[C@@H]1CCC(=O)N1 [Example 10, L-pGlu-L-His-L-Trp-L-Ser-L-Tyr-X-L-Leu-L-Arg-L-Pro-NH-R]
a: number of animals with implants/number of animals treated (pregnant rats; Dose 25 μg. s.c. b.i.d.): 0/10 | b: mean implantation sites (based on those with implantation sites) (pregnant rats; Dose 25 μg. s.c. b.i.d.): 0 | c: viable fetuses/total number of fetuses (successful pregnancy) (pregnant rats; Dose 25 μg. s.c. b.i.d.): 0%

C[C@]12CC[C@@H]3c4ccc(O)cc4CC[C@H]3[C@@H]1CC[C@@H]2O [estradiol]
animals in which implantation takes place [1]: 3 of 8 | viable embryos [1]: 100%
